Measured values as given in patent US12723063B2, “GIPR-agonist compounds” (Eli Lilly and Company, priority 2019, dated 2026).
*1 amine or outer side, *2 acyl side, *3 side chain or, on linkers, in order; H or OH if unused. Where a SMILES comes first, the peptide text is derived from it. Side-chain parts run from the residue outwards. [ ]: non-standard residue; d: D form. The star is where a group is joined. C20 diacid = O=C(O)CCCCCCCCCCCCCCCCCCC(=O)*; γGlu = O=C(O)[C@H](CCC(=O)[*:2])N[*:1]; αMeF = C[C@](N)(Cc1ccccc1)C(=O)O; 4Pal = N[C@@H](Cc1ccncc1)C(=O)O; αMeL = CC(C)C[C@](C)(N)C(=O)O; AEEA = NCCOCCOCC(=O)O; Aib = CC(C)(N)C(=O)O

Key:
human GLP-1R = target: T1, human GLP-1R (Homo sapiens, UniProt P43220); experiment: [125I]-GLP-1 binding, SPA with WGA beads, 0.1% bacitracin; details: geometric mean, read-out: hGLP1R Ki
T1 construct: expressed in transfected cells; crude membranes
Outline: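 Binding buffer was 25 mM HEPES pH 7.4 with 2.5 mM CaCl2, 1 mM MgCl2, 0.1% (w/v) bacitracin, 0.003% Tween-20 and EDTA-free protease inhibitors. Four-parameter regression gave IC50, converted to Ki (geometric mean, SEM, n independent days).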

human GcgR = target: T2, human GcgR (Homo sapiens, UniProt P47871); experiment: [125I]-Glucagon binding, SPA with WGA beads, 0.1% bacitracin; details: geometric mean, read-out: hGcgR Ki
T2 construct: expressed in transfected cells; crude membranes
Outline: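 SPA competition binding with WGA beads on crude membranes from HEK293 cells stably expressing hGcgR. Buffer: 25 mM HEPES pH 7.4, 2.5 mM CaCl2, 1 mM MgCl2, 0.1% bacitracin, 0.003% Tween-20; 10-point 3-fold dilutions, NSB with 1 μM Gcg.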

T1 sequence (P43220 24-463): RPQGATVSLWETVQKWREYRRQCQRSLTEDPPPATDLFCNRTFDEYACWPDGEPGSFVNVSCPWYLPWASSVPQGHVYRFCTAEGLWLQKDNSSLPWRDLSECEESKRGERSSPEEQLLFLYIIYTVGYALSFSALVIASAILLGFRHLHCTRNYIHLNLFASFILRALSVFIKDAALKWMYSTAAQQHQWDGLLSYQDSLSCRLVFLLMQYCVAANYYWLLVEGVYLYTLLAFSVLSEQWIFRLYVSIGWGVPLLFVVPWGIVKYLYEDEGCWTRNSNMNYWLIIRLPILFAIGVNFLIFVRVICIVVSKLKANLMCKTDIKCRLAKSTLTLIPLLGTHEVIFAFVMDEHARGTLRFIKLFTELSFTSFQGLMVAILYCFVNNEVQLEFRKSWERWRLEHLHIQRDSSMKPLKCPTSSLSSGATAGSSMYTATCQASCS
T2 sequence (P47871 26-477): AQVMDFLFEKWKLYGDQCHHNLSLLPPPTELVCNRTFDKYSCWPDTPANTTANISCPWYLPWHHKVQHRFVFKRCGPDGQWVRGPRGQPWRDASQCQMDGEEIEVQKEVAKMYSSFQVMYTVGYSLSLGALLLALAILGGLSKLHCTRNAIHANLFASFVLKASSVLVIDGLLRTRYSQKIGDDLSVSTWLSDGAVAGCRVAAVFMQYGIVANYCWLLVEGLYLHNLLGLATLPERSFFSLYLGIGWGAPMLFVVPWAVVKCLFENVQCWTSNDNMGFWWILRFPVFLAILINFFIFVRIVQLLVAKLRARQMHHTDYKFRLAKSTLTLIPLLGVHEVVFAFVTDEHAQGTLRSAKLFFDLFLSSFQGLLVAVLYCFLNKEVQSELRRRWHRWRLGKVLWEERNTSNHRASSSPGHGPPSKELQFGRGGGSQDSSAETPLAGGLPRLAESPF

## CC[C@H](C)[C@H](NC(=O)[C@H](Cc1ccccc1)NC(=O)[C@@H](NC(=O)CNC(=O)[C@H](CCC(=O)O)NC(=O)C(C)(C)NC(=O)[C@@H](N)Cc1ccc(O)cc1)[C@@H](C)O)C(=O)N[C@@H](CO)C(=O)N[C@@H](CC(=O)O)C(=O)N[C@@H](Cc1ccc(O)cc1)C(=O)N[C@@H](CO)C(=O)N[C@H](C(=O)N[C@@](C)(CC(C)C)C(=O)N[C@@H](CC(C)C)C(=O)N[C@@H](CC(=O)O)C(=O)N[C@@H](CCCCN)C(=O)N[C@@H](CCCCNC(=O)COCCOCCNC(=O)COCCOCCNC(=O)CC[C@H](NC(=O)CCCCCCCCCCCCCCCCCCC(=O)O)C(=O)O)C(=O)N[C@@H](Cc1c[nH]cn1)C(=O)N[C@@H](CCC(N)=O)C(=O)NC(C)(C)C(=O)N[C@@H](CCC(=O)O)C(=O)N[C@@H](Cc1ccccc1)C(=O)N[C@H](C(=O)N[C@@H](CCC(=O)O)C(=O)N[C@@H](Cc1ccc(O)cc1)C(=O)N[C@@H](CC(C)C)C(=O)N[C@@H](CC(C)C)C(=O)N[C@@H](CCC(=O)O)C(=O)N[C@@H](CCC(N)=O)C(=O)NCC(=O)N1CCC[C@H]1C(=O)N[C@@H](CO)C(=O)N[C@@H](CO)C(=O)NCC(=O)N[C@@H](C)C(=O)N1CCC[C@H]1C(=O)N1CCC[C@H]1C(=O)N1CCC[C@H]1C(=O)N[C@@H](CO)C(N)=O)C(C)C)[C@@H](C)CC [Example 63] (H-Y[Aib]EGTFISDYSI[αMeL]LDKK([AEEA-AEEA-γGlu-C20 diacid])HQ[Aib]EFVEYLLEQGPSSGAPPPS-NH2)
Human GLP-1R
  Ki: 0.327 µM
Human GcgR
  Ki: 0.185 µM

## CC[C@H](C)[C@H](NC(=O)[C@H](CO)NC(=O)[C@H](Cc1ccc(O)cc1)NC(=O)[C@H](CC(=O)O)NC(=O)[C@H](CO)NC(=O)[C@@H](NC(=O)[C@](C)(Cc1ccccc1)NC(=O)[C@@H](NC(=O)CNC(=O)[C@H](CCC(=O)O)NC(=O)C(C)(C)NC(=O)[C@@H](N)Cc1ccc(O)cc1)[C@@H](C)O)[C@@H](C)CC)C(=O)N[C@@](C)(CC(C)C)C(=O)N[C@@H](CC(C)C)C(=O)N[C@@H](CC(=O)O)C(=O)N[C@@H](CCCCN)C(=O)N[C@@H](CCCCNC(=O)COCCOCCNC(=O)COCCOCCNC(=O)CC[C@H](NC(=O)CCCCCCCCCCCCCCCCCCC(=O)O)C(=O)O)C(=O)N[C@@H](Cc1c[nH]cn1)C(=O)N[C@@H](CCC(N)=O)C(=O)NC(C)(C)C(=O)N[C@@H](CCC(=O)O)C(=O)N[C@@H](Cc1ccccc1)C(=O)N[C@H](C(=O)N[C@@H](CCC(=O)O)C(=O)N[C@@H](Cc1ccncc1)C(=O)N[C@@H](CC(C)C)C(=O)N[C@@H](CC(C)C)C(=O)N[C@@H](C)C(=O)N[C@H](C(=O)NCC(=O)N1CCC[C@H]1C(=O)N[C@@H](CO)C(=O)N[C@@H](CO)C(=O)NCC(=O)N[C@@H](C)C(=O)N1CCC[C@H]1C(=O)N1CCC[C@H]1C(=O)N1CCC[C@H]1C(=O)N[C@@H](CO)C(N)=O)[C@@H](C)O)C(C)C [Example 61] (H-Y[Aib]EGT[αMeF]ISDYSI[αMeL]LDKK([AEEA-AEEA-γGlu-C20 diacid])HQ[Aib]EFVE[4Pal]LLATGPSSGAPPPS-NH2)
Human GLP-1R
  Ki: 0.135 µM
Human GcgR
  Ki: 0.0804 µM
